In ChEMBL document CHEMBL2401691, “Synthesis and optimization of a novel series of HCV NS3 protease inhibitors: 4-arylproline analogs” (Bioorg Med Chem Lett, 2013):
Converted amounts (≈) assume the structure as drawn.

What was measured:
[1] = Ratio of drug level in rat liver to plasma at 5 mg/kg, po after 6 hrs; type: ADME, organism-based; parameters: dose 5 mg/kg, route oral
[2] = Half life in rat at 2 mg/kg, iv; type: ADME, organism-based; parameters: dose 2 mg/kg, route intravenous; details: in vivo
[3] = Drug uptake in rat liver at 5 mg/kg, po after 6 hrs; type: ADME, organism-based; parameters: dose 5 mg/kg, route oral; details: read-out: Drug uptake
[4] = Oral bioavailability in rat at 5 mg/kg; type: ADME, organism-based; details: in vivo
[5] = Plasma concentration in rat at 5 mg/kg, po after 6 hrs; type: ADME, organism-based; parameters: dose 5 mg/kg, route oral
[6] = AUC (0 to infinity) in rat at 5 mg/kg, po; type: ADME, organism-based; parameters: time infinity, dose 5 mg/kg, route oral; details: plasma
[7] = Cmax in rat at 5 mg/kg, po; type: ADME, organism-based; parameters: dose 5 mg/kg, route oral; details: in vivo
[8] = Half life in rat liver microsomes; type: ADME, Microsome
[9] = Half life in human liver microsomes; type: ADME, Microsome
[10] = Total clearance in rat at 2 mg/kg, iv; type: ADME, organism-based; parameters: dose 2 mg/kg, route intravenous; details: in vivo
[11] = Volume of distribution at steady state in rat at 2 mg/kg, iv; type: ADME, organism-based; parameters: dose 2 mg/kg, route intravenous; details: in vivo, read-out: Vdss
[12] = Solubility of the compound after 24 hrs at pH 7.2; type: physicochemical; details: buffer

| Structure (SMILES) | half-life [8] [h] | half-life [9] [h] | solubility at 24 h [12] [µg/mL] | further results |
| --- | --- | --- | --- | --- |
| C=C[C@@H]1C[C@]1(NC(=O)[C@@H]1C[C@@](OC)(c2ccc(-c3ccccc3)cc2)CN1C(=O)[C@@H](NC(=O)OC1CCCC1)C(C)(C)C)C(=O)NS(=O)(=O)C1CC1 | 1.98 | 1.18 | 43 (≈ 58.5 µM) | Kp at 6 h [1]: 45; half-life [2]: 2.94 h; concentration at 6 h [3]: 2300 nM; bioavailability [4]: 33%; concentration at 6 h [5]: 50 nM; AUC(0-inf) [6]: 1.32 µM·h; Cmax [7]: 320 nM; clearance [10]: 28 mL/min/kg; Vd [11]: 3.04 L/kg |
| C=C[C@@H]1C[C@]1(NC(=O)[C@@H]1C[C@@](OC)(c2ccc(-c3ccccc3)nc2)CN1C(=O)[C@@H](NC(=O)OC1CCCC1)C(C)(C)C)C(=O)NS(=O)(=O)C1CC1 | 2 | 1.45 | 600 (≈ 815 µM) |  |
| C=C[C@@H]1C[C@]1(NC(=O)[C@@H]1C[C@@](OC)(c2ccc(-c3ccc(OC)cc3)cc2)CN1C(=O)[C@@H](NC(=O)OC1CCCC1)C(C)(C)C)C(=O)NS(=O)(=O)C1CC1 | 1.4 | 0.85 | 17 (≈ 22.2 µM) |  |
| C=C[C@@H]1C[C@]1(NC(=O)[C@@H]1C[C@@](OC)(c2ccc(-c3ccc(C)cn3)cc2)CN1C(=O)[C@@H](NC(=O)OC1CCCC1)C(C)(C)C)C(=O)NS(=O)(=O)C1CC1 |  | 0.917 |  |  |
| C=C[C@@H]1C[C@]1(NC(=O)[C@@H]1C[C@@](OC)(c2ccc(-c3nccs3)nc2)CN1C(=O)[C@@H](NC(=O)OC1CCCC1)C(C)(C)C)C(=O)NS(=O)(=O)C1CC1 |  | 2.28 | > 920 |  |
| C=C[C@@H]1C[C@]1(NC(=O)[C@@H]1C[C@@](OC)(c2ccc(-c3ccccc3OC)cc2)CN1C(=O)[C@@H](NC(=O)OC1CCCC1)C(C)(C)C)C(=O)NS(=O)(=O)C1CC1 |  | 0.717 | 36 (≈ 47.1 µM) |  |
| C=C[C@@H]1C[C@]1(NC(=O)[C@@H]1C[C@@](OC)(c2ccc(-c3cc(C)ccc3OC)nc2)CN1C(=O)[C@@H](NC(=O)OC1CCCC1)C(C)(C)C)C(=O)NS(=O)(=O)C1CC1 | 1.42 | 1.4 | 310 (≈ 397 µM) |  |
| C=C[C@@H]1C[C@]1(NC(=O)[C@@H]1C[C@@](OC)(c2ccc(-c3cccc(OC)c3)cc2)CN1C(=O)[C@@H](NC(=O)OC1CCCC1)C(C)(C)C)C(=O)NS(=O)(=O)C1CC1 |  | 1.12 | 19 (≈ 24.8 µM) |  |
| C=C[C@@H]1C[C@]1(NC(=O)[C@@H]1C[C@@](OC)(c2ccc(-c3cscn3)cc2)CN1C(=O)[C@@H](NC(=O)OC1CCCC1)C(C)(C)C)C(=O)NS(=O)(=O)C1CC1 | 3.67 | 0.9 | 540 (≈ 728 µM) |  |
| C=C[C@@H]1C[C@]1(NC(=O)[C@@H]1C[C@@](OC)(c2ccc(-c3ccncc3)cc2)CN1C(=O)[C@@H](NC(=O)OC1CCCC1)C(C)(C)C)C(=O)NS(=O)(=O)C1CC1 | 1.83 | 1.32 | > 790 |  |
| C=C[C@@H]1C[C@]1(NC(=O)[C@@H]1C[C@@](OC)(c2ccc(-c3cnn(C)c3)cc2)CN1C(=O)[C@@H](NC(=O)OC1CCCC1)C(C)(C)C)C(=O)NS(=O)(=O)C1CC1 | 2 | 1.37 | 540 (≈ 731 µM) |  |
| C=C[C@@H]1C[C@]1(NC(=O)[C@@H]1C[C@@](OC)(c2ccc(-c3nccs3)cc2)CN1C(=O)[C@@H](NC(=O)OC1CCCC1)C(C)(C)C)C(=O)NS(=O)(=O)C1CC1 | 1.1 | 1.1 | 452 (≈ 609 µM) |  |
| C=C[C@@H]1C[C@]1(NC(=O)[C@@H]1C[C@@](OC)(c2ccc(-c3cccnc3)cc2)CN1C(=O)[C@@H](NC(=O)OC1CCCC1)C(C)(C)C)C(=O)NS(=O)(=O)C1CC1 | 2.17 | 0.883 | 940 (≈ 1280 µM) |  |
